Experimental findings from ChEMBL document CHEMBL1201862, “PubChem BioAssay data set” (2004) are described below.

In test [1] the target is T1, Tyrosine-protein phosphatase non-receptor type 22 (Homo sapiens, UniProt Q9Y2R2). The format is functional.
Test [2] addresses T1, Tyrosine-protein phosphatase non-receptor type 22. Format: functional. The source holds these as a separate data set.
For test [3], the target named is T2, Tyrosine-protein phosphatase non-receptor type 7 (Homo sapiens, UniProt P35236).
T2 sequence (P35236 whole entry): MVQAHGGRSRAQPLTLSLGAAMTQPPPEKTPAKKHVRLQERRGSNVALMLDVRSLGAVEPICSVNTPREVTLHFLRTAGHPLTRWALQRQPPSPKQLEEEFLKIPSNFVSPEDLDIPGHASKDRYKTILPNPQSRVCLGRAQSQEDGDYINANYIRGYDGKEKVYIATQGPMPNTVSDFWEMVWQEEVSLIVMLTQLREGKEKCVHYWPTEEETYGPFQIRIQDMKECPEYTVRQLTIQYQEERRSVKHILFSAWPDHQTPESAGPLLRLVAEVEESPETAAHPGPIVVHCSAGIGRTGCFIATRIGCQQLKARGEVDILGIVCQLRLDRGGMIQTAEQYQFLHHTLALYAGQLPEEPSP
The format is functional.

Test [4] can be described thus: Luminescence Cell-Based Dose Response HTS to Identify Inhibitors of 5'UTR Stem-Loop Driven Prion Protein mRNA Translation in H4 Neuroglioblastoma Cells. [Related pubchem assays: 1827 (Project Summary), 1813 (Primary HTS)]. Format: functional.
Test [5] in a line: alpha-synuclein stem-loop luciferase translation blockers – H4 neuroglioma cells, luminescence, confirmation (AID 1988). The format is functional, cell-based.
Test [6] has as its target Mu-type opioid receptor (Homo sapiens, UniProt P35372). The test is described as follows: HTS Image-Based Screen for Agonists of the MOR Receptor. [Related pubchem assays (depositor defined):AID1777, AID1785, AID1786, AID2133]. Format: functional.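 Also: imaging of beta-arrestin GFP recruitment into spots after receptor activation.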
The target of test [7] is T3, Delta-type opioid receptor (Homo sapiens, UniProt P41143). The test is described as follows: HTS Image-Based Screen for Antagonists of the DOR Receptor. [Related pubchem assays (depositor defined):AID1777, AID1785, AID1786, AID2133]. Format: functional.
Test [8] concerns the target G-protein coupled receptor 55 (Homo sapiens, UniProt Q9Y2T6). The test is described as follows: selective activators of receptor GPR55 – imaging, U2OS cells, beta-arrestin-GFP redistribution, primary screen (AID 1961). Format: functional.
Test [9] concerns the target T4, Kappa-type opioid receptor (Homo sapiens, UniProt P41145). Format: functional.
Test [10] has as its target T4, Kappa-type opioid receptor. Format: functional. This is another data set of the same source.
Test [11] has as its target T3, Delta-type opioid receptor. In words: HTS Image-Based Screen for Agonists of the DOR Receptor. [Related pubchem assays (depositor defined):AID1777, AID1786, AID2133]. Format: functional.
Test [12] is described as follows: Trypanosoma cruzi growth suppression in host cells – NIH3T3 host cells, beta-gal luminescence, confirmation (AID 2044).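 Also: intracellular parasites grown in NIH/3T3 mouse fibroblasts as host cells; luminescent beta-galactosidase reporter signal from transgenic T. cruzi replicating inside host cells; inhibitors lower the luminescence signal.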 The format is functional, cell-based.
Test [13] concerns the target T5, Microphthalmia-associated transcription factor (Homo sapiens, UniProt O75030).
T5 sequence (O75030 whole entry): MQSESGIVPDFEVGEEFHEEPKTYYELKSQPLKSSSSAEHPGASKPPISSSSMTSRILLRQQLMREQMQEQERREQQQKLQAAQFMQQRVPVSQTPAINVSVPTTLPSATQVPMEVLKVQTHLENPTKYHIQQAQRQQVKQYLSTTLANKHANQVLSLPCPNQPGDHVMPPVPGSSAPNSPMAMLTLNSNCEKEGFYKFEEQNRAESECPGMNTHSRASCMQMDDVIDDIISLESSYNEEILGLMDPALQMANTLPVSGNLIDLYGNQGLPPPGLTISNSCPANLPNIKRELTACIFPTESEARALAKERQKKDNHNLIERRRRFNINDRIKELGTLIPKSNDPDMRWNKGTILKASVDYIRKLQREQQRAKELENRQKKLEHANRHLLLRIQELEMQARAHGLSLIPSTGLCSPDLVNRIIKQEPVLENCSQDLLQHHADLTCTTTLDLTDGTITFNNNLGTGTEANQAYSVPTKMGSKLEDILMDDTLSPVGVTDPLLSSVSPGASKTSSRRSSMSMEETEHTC
In words: reducers of TRPM1 reporter luminescence, concentration series – cell-based, SK-MEL-5, cherry-picked, set 3, MITF inhibitor project, dose response (AID 493073).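 Also: SK-MEL-5 melanoma cells with luciferase driven by the MITF target TRPM1 promoter.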 Format: functional.

Test [14] deals with Beta-galactosidase (Escherichia coli, UniProt Q8VNN2). Format: functional.
The nature of test [15]: luciferase reporter signal suppression in cells – H4 neuroglioma cells, luminescence, dose response (AID 1990). The format is functional, cell-based.
A short description of test [16]: NIH3T3 cell viability loss – ATP luminescence, mouse fibroblasts, counter-screen, dose response (AID 2010).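 Also: cells exposed to compound for about 90 hours before reading.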 The format is functional, cell-based.
Test [17] has as its target T6, Heat shock factor protein 1 (Mus musculus, UniProt P38532).
T6 sequence (P38532 whole entry): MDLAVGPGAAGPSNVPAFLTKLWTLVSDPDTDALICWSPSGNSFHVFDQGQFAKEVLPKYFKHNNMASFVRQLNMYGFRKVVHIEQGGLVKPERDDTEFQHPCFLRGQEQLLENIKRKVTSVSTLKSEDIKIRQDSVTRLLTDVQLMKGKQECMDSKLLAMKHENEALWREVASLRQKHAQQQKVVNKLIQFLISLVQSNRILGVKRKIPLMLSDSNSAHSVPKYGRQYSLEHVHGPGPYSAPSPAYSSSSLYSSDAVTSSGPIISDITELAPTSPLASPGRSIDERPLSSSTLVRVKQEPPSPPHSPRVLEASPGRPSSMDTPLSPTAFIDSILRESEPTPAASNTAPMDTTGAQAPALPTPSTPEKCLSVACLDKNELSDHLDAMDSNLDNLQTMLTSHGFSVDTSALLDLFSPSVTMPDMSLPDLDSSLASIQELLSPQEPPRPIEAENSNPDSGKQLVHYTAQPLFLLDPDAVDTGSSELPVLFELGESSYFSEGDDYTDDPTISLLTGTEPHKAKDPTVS
The test is described as follows: enhancement of HSF1-driven luciferase signal – cell-based, NIH3T3, luminescence, dose retest, confirmation (AID 435004).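 Also: stress induced by proteasome inhibitor MG132 added 30 min after compound; luciferase reporter driven by HSF1 response element in NIH3T3 cells; actives raise luminescence as potentiators of the MG132 stress response.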 The format is functional.

Test [18] has as its target Peroxisome proliferator-activated receptor gamma/Nuclear receptor coactivator 3 (Homo sapiens, UniProt P37231). The test is described as follows: TR-FRET dose response biochemical High Throughput Screening assay for agonists of the steroid receptor coactivator 3 (SRC-3) recruitment by the peroxisome proliferator-activated receptor gamma (PPAR gamma): non-selective agonists. [Related pubchem assays: 1301 (Confirmation screen.), 1048 (Primary screen.)]. Format: functional.

In test [19] the target is Peroxisome proliferator-activated receptor gamma/Nuclear receptor coactivator 2 (Homo sapiens, UniProt P37231). In words: TR-FRET dose response biochemical High Throughput Screening assay for agonists of the steroid receptor coactivator 2 (SRC-2) recruitment by the peroxisome proliferator-activated receptor gamma (PPAR gamma): non-selective agonists. [Related pubchem assays: 1297, 1032 ]. The format is functional.

Test [20] addresses Peroxisome proliferator-activated receptor gamma/Nuclear receptor coactivator 1 (Homo sapiens, UniProt P37231). In words: TR-FRET dose response biochemical High Throughput Screening assay for agonists of the steroid receptor coactivator 1 (SRC-1) recruitment by the peroxisome proliferator-activated receptor gamma (PPAR gamma): non-selective agonists. [Related pubchem assays (depositor defined):AID1300, AID1808, AID504735, AID631]. The format is protein assay.

Test [21] has as its target T7, Nucleotide-binding oligomerization domain-containing protein 1 (Homo sapiens, UniProt Q9Y239).
T7 sequence (Q9Y239 whole entry): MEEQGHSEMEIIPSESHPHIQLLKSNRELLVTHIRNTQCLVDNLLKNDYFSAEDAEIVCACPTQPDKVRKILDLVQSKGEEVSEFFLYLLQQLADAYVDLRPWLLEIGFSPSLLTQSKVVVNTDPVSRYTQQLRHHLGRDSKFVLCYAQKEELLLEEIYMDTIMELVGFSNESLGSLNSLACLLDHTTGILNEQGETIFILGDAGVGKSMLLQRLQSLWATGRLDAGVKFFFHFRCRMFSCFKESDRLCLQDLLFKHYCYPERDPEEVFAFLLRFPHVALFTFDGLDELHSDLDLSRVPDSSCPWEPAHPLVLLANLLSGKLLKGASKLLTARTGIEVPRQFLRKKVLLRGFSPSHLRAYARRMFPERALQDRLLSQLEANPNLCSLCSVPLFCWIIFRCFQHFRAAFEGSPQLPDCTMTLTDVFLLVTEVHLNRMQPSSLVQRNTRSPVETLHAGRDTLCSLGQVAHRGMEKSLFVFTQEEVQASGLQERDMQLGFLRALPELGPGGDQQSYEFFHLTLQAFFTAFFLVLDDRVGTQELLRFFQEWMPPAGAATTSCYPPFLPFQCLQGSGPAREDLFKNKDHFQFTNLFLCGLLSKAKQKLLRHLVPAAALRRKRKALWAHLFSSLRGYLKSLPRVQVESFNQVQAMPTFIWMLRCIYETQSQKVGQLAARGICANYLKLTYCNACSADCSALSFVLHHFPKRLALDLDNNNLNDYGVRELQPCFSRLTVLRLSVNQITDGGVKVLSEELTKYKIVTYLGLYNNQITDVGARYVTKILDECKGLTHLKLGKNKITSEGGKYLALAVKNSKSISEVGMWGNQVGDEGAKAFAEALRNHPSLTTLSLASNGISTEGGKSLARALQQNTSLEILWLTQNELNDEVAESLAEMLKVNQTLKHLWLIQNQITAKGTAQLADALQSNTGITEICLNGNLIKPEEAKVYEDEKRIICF
In words: SAR analysis of compounds that inhibit NOD1 - Set 3. [Related pubchem assays (depositor defined):AID1566, AID1575, AID1578, AID1849, AID1852, AID2333, AID2335, AID2466]. Format: functional.

In test [22] the target is T8, Tumor necrosis factor (Homo sapiens, UniProt P01375). The test is described as follows: analog potency on TNFa NF-kB signaling – cell-based, set 3, SAR follow-up (AID 2801). The format is functional.
Test [23] has as its system HEK293. In words: SAR analysis of compounds that are cytotoxic to HEK293 - Set 3. [Related pubchem assays (depositor defined):AID1575, AID1578, AID1848, AID1849, AID2001, AID2333, AID2334, AID2335, AID2337, AID2469]. The format is functional, cell-based. The settings on record: Homo sapiens.
For test [24], the system named is HEK293. The test is described as follows: cells. The settings on record: Homo sapiens.
Test [25] concerns the target Nucleotide-binding oligomerization domain-containing protein 2 (Homo sapiens, UniProt Q9HC29). In words: inhibition of MDP-driven NOD2 NF-kB reporter – cell-based, set 3, SAR follow-up (AID 2799). Format: functional.
Test [26] addresses T8, Tumor necrosis factor. The test is described as follows: analog potency on TNFa NF-kB signaling – cell-based, revised, SAR follow-up (AID 2337). Format: functional.
Test [27] addresses Intestinal-type alkaline phosphatase (Homo sapiens, UniProt P09923). In words: activation of human intestinal alkaline phosphatase – biochemical, dose response (AID 488873). Format: functional.
Test [28] has as its target Intestinal-type alkaline phosphatase (Mus musculus, UniProt P24822). In words: mouse intestinal alkaline phosphatase activators, dose response, biochemical, luminescence, uHTS hits (AID 488783). Format: functional.
Test [29] addresses T9, Alkaline phosphatase, tissue-nonspecific isozyme (Homo sapiens, UniProt P05186).
T9 sequence (P05186 whole entry): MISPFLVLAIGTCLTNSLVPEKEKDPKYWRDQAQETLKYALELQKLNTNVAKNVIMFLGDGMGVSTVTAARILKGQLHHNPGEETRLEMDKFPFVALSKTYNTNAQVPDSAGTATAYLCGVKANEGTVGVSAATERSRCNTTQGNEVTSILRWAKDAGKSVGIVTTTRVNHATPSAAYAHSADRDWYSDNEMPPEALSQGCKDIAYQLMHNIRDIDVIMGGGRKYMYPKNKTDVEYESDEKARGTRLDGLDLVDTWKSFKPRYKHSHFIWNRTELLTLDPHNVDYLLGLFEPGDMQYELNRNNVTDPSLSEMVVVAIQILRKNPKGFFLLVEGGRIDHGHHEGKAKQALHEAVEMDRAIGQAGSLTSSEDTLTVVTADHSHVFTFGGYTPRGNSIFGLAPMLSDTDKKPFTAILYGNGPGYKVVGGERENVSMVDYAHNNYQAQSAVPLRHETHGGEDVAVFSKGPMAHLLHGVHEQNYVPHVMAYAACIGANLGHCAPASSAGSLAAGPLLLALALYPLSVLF
In words: activation of tissue-nonspecific alkaline phosphatase – biochemical, TNAP isozyme, mouse IAP uHTS hits, selectivity assay for mouse IAP activator project, dose response (AID 488880). The format is functional.

Active and inactive are the calls of the source.

T3 sequence (P41143 whole entry): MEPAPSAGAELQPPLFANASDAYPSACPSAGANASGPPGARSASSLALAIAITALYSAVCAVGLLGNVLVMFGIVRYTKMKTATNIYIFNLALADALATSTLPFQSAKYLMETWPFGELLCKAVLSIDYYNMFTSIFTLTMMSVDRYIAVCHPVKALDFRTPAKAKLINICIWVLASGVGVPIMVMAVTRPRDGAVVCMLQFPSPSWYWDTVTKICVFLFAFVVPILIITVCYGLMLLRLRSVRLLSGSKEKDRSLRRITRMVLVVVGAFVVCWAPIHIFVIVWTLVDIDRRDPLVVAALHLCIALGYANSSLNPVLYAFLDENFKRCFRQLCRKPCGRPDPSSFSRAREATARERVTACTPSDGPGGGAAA
T1 sequence (Q9Y2R2 whole entry): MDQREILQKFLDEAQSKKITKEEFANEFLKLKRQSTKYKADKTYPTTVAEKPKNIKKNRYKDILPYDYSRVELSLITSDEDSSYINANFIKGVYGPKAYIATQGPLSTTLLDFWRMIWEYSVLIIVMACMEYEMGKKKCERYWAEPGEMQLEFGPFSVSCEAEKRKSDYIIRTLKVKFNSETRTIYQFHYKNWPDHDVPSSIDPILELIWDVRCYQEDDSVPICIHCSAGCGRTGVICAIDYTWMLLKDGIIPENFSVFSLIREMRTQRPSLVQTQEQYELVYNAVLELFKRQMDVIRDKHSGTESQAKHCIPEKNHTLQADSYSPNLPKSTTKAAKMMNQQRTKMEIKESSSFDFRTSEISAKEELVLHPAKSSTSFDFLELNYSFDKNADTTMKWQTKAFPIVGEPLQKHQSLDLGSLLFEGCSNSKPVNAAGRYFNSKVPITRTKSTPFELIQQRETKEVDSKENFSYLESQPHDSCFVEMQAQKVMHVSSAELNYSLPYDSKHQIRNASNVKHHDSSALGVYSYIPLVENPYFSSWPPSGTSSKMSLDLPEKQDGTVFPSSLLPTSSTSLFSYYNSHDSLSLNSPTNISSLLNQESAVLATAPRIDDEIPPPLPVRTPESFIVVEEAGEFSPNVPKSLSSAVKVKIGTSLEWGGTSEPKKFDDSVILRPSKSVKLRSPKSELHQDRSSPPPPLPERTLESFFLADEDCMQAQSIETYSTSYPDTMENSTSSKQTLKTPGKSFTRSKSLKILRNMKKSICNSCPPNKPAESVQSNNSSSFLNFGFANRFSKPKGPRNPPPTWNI
T8 sequence (P01375 whole entry): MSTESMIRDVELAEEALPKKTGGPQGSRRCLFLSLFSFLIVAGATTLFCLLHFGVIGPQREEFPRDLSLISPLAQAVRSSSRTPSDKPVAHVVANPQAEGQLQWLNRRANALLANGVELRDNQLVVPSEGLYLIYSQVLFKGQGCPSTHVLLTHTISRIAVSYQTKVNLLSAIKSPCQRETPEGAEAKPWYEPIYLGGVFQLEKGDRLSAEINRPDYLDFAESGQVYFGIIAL
T4 sequence (P41145 whole entry): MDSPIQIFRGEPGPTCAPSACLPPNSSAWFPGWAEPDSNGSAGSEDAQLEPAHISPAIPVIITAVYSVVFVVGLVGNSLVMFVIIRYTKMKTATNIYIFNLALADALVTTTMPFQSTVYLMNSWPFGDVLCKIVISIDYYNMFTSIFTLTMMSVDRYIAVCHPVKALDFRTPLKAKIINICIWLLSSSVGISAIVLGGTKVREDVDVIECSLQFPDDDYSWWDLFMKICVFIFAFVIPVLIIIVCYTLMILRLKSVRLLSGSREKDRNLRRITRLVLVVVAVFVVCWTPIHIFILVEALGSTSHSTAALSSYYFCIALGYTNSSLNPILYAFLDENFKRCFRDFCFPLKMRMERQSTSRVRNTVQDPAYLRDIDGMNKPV
Intestinal-type alkaline phosphatase (Mus musculus, UniProt P24822), sequence (P24822 whole entry): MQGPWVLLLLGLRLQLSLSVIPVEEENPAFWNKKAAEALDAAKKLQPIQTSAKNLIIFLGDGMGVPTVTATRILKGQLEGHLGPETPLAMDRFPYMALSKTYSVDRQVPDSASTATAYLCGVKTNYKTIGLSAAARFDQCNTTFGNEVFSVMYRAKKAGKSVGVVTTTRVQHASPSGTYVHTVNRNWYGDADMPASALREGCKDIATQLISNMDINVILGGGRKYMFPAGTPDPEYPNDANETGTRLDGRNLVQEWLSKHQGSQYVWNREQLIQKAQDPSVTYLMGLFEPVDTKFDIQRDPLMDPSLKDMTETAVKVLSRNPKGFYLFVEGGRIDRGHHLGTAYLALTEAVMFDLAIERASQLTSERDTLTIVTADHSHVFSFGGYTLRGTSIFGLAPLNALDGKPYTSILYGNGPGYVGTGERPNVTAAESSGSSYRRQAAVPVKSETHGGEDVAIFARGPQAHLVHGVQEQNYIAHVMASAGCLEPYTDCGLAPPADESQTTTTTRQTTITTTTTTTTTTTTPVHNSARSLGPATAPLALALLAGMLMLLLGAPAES
Intestinal-type alkaline phosphatase (Homo sapiens, UniProt P09923), sequence (P09923 whole entry): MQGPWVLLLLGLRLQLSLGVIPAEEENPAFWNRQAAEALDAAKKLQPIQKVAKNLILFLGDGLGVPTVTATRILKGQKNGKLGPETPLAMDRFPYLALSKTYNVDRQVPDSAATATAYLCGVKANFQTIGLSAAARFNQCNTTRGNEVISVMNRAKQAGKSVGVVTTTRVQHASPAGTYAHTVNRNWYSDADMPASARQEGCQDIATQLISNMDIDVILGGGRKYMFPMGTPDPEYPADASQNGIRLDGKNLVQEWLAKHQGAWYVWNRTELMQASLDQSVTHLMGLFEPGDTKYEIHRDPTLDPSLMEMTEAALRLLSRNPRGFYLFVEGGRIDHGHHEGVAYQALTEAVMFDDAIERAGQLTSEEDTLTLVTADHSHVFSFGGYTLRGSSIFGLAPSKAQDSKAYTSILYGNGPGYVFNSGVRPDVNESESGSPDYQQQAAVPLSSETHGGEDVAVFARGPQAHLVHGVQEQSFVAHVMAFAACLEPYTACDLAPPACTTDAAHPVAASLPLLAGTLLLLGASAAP
Peroxisome proliferator-activated receptor gamma/Nuclear receptor coactivator 1, sequence (P37231 whole entry): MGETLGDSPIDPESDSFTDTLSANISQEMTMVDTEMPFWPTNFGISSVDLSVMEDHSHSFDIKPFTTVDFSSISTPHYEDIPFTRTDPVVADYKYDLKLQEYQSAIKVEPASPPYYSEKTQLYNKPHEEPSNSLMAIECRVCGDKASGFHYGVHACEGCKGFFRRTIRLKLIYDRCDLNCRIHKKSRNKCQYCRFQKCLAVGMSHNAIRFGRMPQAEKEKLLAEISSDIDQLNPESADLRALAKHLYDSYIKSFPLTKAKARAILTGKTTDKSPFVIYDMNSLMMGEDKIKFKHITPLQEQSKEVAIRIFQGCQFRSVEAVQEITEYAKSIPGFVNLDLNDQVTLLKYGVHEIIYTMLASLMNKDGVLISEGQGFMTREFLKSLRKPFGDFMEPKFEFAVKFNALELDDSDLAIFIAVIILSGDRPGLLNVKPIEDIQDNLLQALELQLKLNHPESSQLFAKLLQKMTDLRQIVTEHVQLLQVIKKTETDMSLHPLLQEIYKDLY
Peroxisome proliferator-activated receptor gamma/Nuclear receptor coactivator 1, sequence (Q15788 whole entry, further chain): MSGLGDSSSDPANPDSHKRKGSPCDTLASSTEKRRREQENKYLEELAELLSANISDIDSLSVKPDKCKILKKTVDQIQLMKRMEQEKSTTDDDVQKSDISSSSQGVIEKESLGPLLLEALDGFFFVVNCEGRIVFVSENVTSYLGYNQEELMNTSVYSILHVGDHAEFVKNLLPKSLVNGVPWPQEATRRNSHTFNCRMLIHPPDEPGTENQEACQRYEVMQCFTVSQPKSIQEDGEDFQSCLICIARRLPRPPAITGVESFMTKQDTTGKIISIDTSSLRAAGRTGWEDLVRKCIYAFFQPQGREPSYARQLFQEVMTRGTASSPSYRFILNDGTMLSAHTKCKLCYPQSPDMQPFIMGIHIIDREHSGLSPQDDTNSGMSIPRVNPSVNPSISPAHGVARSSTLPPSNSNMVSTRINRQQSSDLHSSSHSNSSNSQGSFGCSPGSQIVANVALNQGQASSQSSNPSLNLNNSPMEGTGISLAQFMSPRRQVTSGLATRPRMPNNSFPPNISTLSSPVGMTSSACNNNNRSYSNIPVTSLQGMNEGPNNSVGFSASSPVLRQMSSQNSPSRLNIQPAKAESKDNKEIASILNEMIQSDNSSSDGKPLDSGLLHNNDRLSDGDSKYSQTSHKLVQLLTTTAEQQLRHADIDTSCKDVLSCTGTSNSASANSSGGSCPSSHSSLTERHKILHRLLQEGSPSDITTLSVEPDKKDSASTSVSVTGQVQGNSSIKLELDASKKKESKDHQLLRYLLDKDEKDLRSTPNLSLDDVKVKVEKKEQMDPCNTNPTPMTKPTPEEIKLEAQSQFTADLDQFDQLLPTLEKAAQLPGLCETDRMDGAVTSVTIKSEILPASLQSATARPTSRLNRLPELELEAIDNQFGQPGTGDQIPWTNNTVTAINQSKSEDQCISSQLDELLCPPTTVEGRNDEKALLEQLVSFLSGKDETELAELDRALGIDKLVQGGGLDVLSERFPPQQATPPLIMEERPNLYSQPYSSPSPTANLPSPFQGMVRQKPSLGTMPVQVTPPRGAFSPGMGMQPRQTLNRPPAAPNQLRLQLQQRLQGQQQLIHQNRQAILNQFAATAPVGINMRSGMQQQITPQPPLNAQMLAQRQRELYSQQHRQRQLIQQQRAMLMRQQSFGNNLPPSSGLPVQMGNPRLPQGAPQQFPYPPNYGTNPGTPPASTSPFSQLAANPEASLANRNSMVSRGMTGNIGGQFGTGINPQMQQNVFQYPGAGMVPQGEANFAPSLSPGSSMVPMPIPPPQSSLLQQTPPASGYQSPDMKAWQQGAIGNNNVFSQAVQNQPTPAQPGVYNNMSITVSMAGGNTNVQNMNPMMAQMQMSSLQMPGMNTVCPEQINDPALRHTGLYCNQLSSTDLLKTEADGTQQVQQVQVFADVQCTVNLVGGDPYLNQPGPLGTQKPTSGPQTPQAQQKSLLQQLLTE

On to `CCOC(=O)c1cnc2c(Cl)c(Cl)ccc2c1NCCN1CCOCC1`, for which the IC50 in test [1], in [2] and in [3] was > 79.4 µM (inactive) each time.

Turning to `COc1ccc(C(=O)/C=C/C(=O)N(CC(=O)NC2CCCCC2)Cc2ccccc2)c(O)c1`, the EC50 in test [4] was > 120 µM (not active); in test [5], 9.06 µM (active); in test [6] it was > 32 µM (inactive); in [8], > 32 µM (inactive); in test [11], > 32 µM (inactive); in test [12] it was 1.64 µM (active). The EC50 is > 31.5 µM (inactive) in test [14], > 60 µM (not active) in [15], > 60 µM (inconclusive) in [16] and > 260 µM (inactive) in test [17]. Besides, the IC50 in [7] was > 32 µM (inactive); in test [9], 8.34 µM; in [10] it was 4.97 µM (active). The AC50 in test [13] is 5.24 µM (active).

For `COCCNc1nc2ccccc2nc1NS(=O)(=O)c1ccc(C)cc1C`, the EC50 is > 79.4 µM (not active) in [18], > 79.4 µM (not active) in test [19] and > 79.4 µM (inactive) in test [20].

Regarding `Nc1cc(NC(=O)c2ccc3ccccc3c2O)ccc1Cl`, the IC50 in [21], in [22], in test [23], in test [24], in test [25] and in [26] was > 20 µM (inactive) each time.

Take `O=C1CC(c2ccc(O)c(O)c2)Oc2cc(O)cc(O)c21` (centres undefined): the EC50 in test [27] was 50.4 µM (active); in test [28], 54.1 µM (active); in test [29], 81.8 µM (active).
